# Values of other authors as cited in US8524285B2, “Nutraceutical mangosteen composition” (DBC, LLC, priority 2002, dated 2013).
# Key:
# type A monoamine oxidase = molecular target: T1, type A monoamine oxidase (Homo sapiens, UniProt P21397); conditions: Nakatani et al., 63 Biochemical Pharmacology 73-79 (2002)
# T1 sequence (P21397 1-527): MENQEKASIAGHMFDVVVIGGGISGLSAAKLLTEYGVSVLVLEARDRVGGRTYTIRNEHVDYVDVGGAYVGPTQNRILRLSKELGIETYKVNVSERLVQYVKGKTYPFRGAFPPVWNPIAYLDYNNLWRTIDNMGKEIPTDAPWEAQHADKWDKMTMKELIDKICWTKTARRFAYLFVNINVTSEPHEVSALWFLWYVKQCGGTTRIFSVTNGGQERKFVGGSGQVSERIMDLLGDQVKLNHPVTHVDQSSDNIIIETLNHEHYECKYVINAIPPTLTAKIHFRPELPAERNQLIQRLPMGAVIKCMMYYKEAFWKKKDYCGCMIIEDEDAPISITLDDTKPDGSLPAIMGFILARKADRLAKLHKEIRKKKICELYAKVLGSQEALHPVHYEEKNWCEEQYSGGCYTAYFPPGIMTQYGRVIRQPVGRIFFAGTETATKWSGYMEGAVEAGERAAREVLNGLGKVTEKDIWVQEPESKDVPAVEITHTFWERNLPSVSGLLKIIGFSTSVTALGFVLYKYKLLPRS
# type B monoamine oxidase = molecular target: T2, type B monoamine oxidase (Homo sapiens, UniProt P27338); conditions: Nakatani et al., 63 Biochemical Pharmacology 73-79 (2002)
# T2 sequence (P27338 1-520): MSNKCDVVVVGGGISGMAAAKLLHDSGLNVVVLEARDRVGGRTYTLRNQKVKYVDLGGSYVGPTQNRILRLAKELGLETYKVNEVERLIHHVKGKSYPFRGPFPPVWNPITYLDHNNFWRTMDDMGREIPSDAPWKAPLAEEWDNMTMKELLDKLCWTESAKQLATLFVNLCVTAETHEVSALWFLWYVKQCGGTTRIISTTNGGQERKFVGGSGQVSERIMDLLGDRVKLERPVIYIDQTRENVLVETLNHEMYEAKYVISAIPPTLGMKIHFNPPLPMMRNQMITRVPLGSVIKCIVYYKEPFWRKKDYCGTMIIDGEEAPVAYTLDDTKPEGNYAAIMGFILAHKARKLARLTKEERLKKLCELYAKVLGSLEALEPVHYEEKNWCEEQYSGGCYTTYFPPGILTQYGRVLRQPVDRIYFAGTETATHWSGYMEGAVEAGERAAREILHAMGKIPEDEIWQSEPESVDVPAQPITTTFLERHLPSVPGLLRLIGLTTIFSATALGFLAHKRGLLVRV
# COX-1 = COX-1 (Homo sapiens, UniProt P23219); conditions: constitutive isoform; Nakatani et al. (2002)
# [1] = system: prostaglandin E2 synthesis; conditions: Nakatani et al. (2002)
# COX-1, sequence (P23219 24-599): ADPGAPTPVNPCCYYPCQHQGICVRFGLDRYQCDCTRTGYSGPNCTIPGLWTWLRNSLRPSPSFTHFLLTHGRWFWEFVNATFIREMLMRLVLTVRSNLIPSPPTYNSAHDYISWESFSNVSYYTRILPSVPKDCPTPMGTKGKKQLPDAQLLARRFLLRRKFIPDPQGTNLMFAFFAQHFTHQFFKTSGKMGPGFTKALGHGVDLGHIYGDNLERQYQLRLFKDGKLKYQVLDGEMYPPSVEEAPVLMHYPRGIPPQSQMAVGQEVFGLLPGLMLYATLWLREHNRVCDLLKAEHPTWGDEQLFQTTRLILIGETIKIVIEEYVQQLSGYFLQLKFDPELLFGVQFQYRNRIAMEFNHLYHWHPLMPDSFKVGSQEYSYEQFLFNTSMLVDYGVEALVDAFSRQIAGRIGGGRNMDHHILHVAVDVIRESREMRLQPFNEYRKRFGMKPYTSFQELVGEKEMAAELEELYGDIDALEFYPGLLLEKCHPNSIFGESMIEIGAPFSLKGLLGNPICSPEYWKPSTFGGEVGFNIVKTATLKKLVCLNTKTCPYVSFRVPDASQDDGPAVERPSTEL
smiles,measurement,setting,value
CC(C)=CCc1c(O)cc2oc3cc(O)c(O)c(CC=C(C)C)c3c(=O)c2c1O [γ-mangostin],inhibition of type A monoamine oxidase,type A monoamine oxidase,inhibits
same,inhibition of type B monoamine oxidase,type B monoamine oxidase,inhibits
same,inhibition of COX-1 activity,COX-1,directly inhibit
same,inhibition of prostaglandin E2 synthesis,[1],inhibits
